We go through 4 compounds from patent US10913932B2, “Maturation of mammalian hepatocytes” (Takara Bio Europe AB, priority 2015, dated 2021).

Structures are written as SMILES.

One data set concerns OATP1B1. As to the kind of experiment: OATP1B1 mRNA expression levels. Format: cell-based, human. To be noted: protocol B plus compound compared to protocol A; day 36; protocol B alone also increases; FIG. 2 F.
For data set [1], the system named is ChiPSC4-derived hepatocytes. As to the kind of experiment: CYP activity assay, Example 4, basic protocol B. To be noted: single compounds 0.2-5 μM or combinations, from day 21 onwards, Collagen I-Fibronectin-based coating, day 29, FIG. 2 A-D. How it is done:
(§1) On day 29 and 36 of the differentiation protocol, the cell cultures are subjected to a CYP activity assay according to the following protocol: Cells are washed twice with warm Williams's medium E w/o phenol red (+0.1% PEST). Then CYP activity assay, consisting of warm Williams medium E w/o phenol red (+0.1% PEST), 2 mM L-Glutamine, 25 mM HEPES, 10 μM Phenacetin (model substrate for CYP1A), 10 μM Bupropion (model substrate for 2B6), 10 μM Diclofenac (model substrate for CYP2C9), 10 μM Bufuralol (model substrate for 2D6), and 5 μM Midazolam (model substrate for CYP3A), is added to the cells (e.g. 110 μl/cm^2) and incubated for 16 hr at 37° C. Then 100 μl of the supernatant is transferred into a 96 well plate which is sealed with a tight seal tape and stored at −80° C. until LC/MS-analysis of metabolite formation: Acetaminophen (Paracetamol) for CYP1A, OH-Bupropion for CYP2B6, OH-Diclofenac for CYP2C9, OH-Bufuralol for CYP2D6, and OH-Midazolam for CYP3A. […]
On day 29 of the differentiation protocol, the cell cultures are subjected to a CYP activity assay according to the protocol described in Example 3. In some experiments, 50 μM Mephenytoin (model substrate for 2C19) was included additionally to the substrates mentioned above and then the formation of the metabolite OH-Mephenytoin was measured by LC/MS in order to determine CYP2C19 activity.

Data set [2] has as its system hiPS cell-derived hepatocytes. Put plainly: CYP activity assay (LC/MS metabolite formation), Example 3, basic protocol A. The conditions noted are these: single compounds, 0.2-50 μM, from day 21 onwards, Fibronectin-based coating, day 29 and 36, FIG. 1. How it is done:
Following the basic protocol A, hiPS cell derived hepatocytes cultured on a Fibronectin-based coating were treated with 0.5 or 5 μM 10Z-Heptadecenoic acid, 0.5 or 5 μM Arachidonic acid, 5 μM Calcifediol, 5 μM Calcitriol, 0.2 or 0.5 μM Cholecalciferol, 5 or 50 μM CGP 52608, 0.5 or 5 μM Docosahexaenoic acid, 0.5, 1.25, 2.5, 5, or 10 μM PP1, 0.5 or 5 μM PP2, 0.5 or 5 μM D-erythro-Sphingosine, or 0.5 or 5 μM Tetradecanoic acid from day 21 of the differentiation protocol and onwards (FIG. 1).
as §1, with “C.” for “C. Then 100 μl of the supernatant is transferred into a 96 well plate which is sealed with a tight seal tape and stored at −80° C. until LC/MS-analysis of metabolite formation: Acetaminophen (Paracetamol) for CYP1A, OH-Bupropion for CYP2B6, OH-Diclofenac for CYP2C9, OH-Bufuralol for CYP2D6, and OH-Midazolam for CYP3A.”

Description for OATP1B1: Following the basic protocol B, ChiPSC4-derived hepatocytes cultured on a Collagen I-Fibronectin-based coating were treated with 0.5 μM 10Z-Heptadecenoic acid, 0.5 μM Arachidonic acid, 0.5 μM Calcitriol, 5 μM CGP 52608, 0.2 μM Cholecalciferol, 5 μM PP1, 0.5 μM D-erythro-Sphingosine, 0.2 μM 13 cis-RA, 0.5 μM L-erythro MAPP, 0.5 μM PAF C16, 0.5 μM C16 Ceramide, or different combinations of these compounds from day 21 of the differentiation protocol and onwards (FIG. 2).

Take `CCCCCC/C=C\CCCCCCCCC(=O)O` [10Z-Heptadecenoic acid, 10Z-heptadecenoic acid]: the “OATP1B1 mRNA levels” value with OATP1B1 is recorded as “increase”. With `C=C1CC[C@H](O)C/C1=C/C=C1\CCC[C@]2(C)[C@@H]([C@H](C)CCCC(C)C)CC[C@@H]12` [Cholecalciferol, cholecalciferol], the CYP activity levels result in data set [1] and in data set [2] was “increase CYP activity levels” each time. In the case of `CC(C)(C)n1nc(-c2ccc(Cl)cc2)c2c(N)ncnc21` [PP2, 3-(4-chlorophenyl) 1-(1,1-dimethylethyl)-1H-pyrazolo[3,4-d]pyrimidin-4-amine], in data set [2], the CYP activity levels result is “increase CYP activity levels”. In the case of `CC1=C(/C=C/C(C)=C/C=C/C(C)=C\C(=O)O)C(C)(C)CCC1` [13 cis-RA, 13-cis-retinoic acid], the CYP activity levels result in data set [1] is “increase CYP activity levels”.
